{"source": "patent US20230346803A1", "about": "“COMPOSITIONS OF BERBERINE URSODEOXYCHOLATE AND METHODS THEREOF FOR TREATING PRIMARY SCLEROSING CHOLANGITIS” (SHENZHEN HIGHTIDE BIOPHARMACEUTICAL LTD., priority 2021, published 2023)", "tested_on": "adult subjects with PSC", "experiment": "Phase 2, multicenter, dose-ranging, 18-week, placebo-controlled study of BUDCA in PSC", "type": "in vivo, human", "details": "for Share of subjects achieving a 25% reduction in ALP: 0 subjects on placebo; for Percent change from Baseline in GGT at Week 6: all subjects", "method": "A Phase 2, multicenter, dose-ranging, 18-week study was conducted comparing two dose regimens of BUDCA (500 mg BID and 1,000 mg BID) to placebo in adult subjects with PSC.\nBUDCA drug product (also herein referred to as HTD1801) is a film-coated tablet containing 250 mg of berberine ursodeoxycholate.\nThe clinical study design consisted of an initial randomized, double-blind, placebo-and dose-controlled, parallel-group period (Period 1), followed by a dose-controlled extension period (Period 2), which is followed by a placebo-controlled randomized withdrawal period (Period 3). • Period 1: Subjects were randomized to receive BID doses of 500 mg, 1,000 mg, or matching placebo for 6 weeks. The primary analysis was based on this initial 6-week randomized, double-blind, placebo- and dose-controlled, parallel-group period. • Period 2: Subjects previously randomized to 500 mg BID or 1,000 mg BID continued for 6 more weeks at that previous dose, while subjects previously randomized to placebo were re-randomized to receive 6 weeks of either 500 mg BID or 1,000 mg BID. • Period 3: Subjects were re-randomized to either continue on the active treatment they had received in Period 2 or be assigned to placebo.\nPatients with a known diagnosis of PSC based upon magnetic resonance cholangiopancreatography (MRCP) or endoscopic retrograde cholangiopancreatography (ERCP) findings were eligible for inclusion in this study. To be eligible for randomization into the study, serum ALP levels at screening had to be elevated at least above 1.5 times the upper limit of normal (ULN).\nThe primary endpoint was the absolute change in ALP from Baseline to Week 6 (Period 1).\nFor this study, 88 subjects with PSC were screened, 59 were randomized, 55 received at least 1 dose of study drug (safety population), and 54 had at least 1 post-dose efficacy assessment (modified intent-to-treat (mITT) population).\nAll statistical tests were two-sided with an alpha level of 0.05. The statistical analyses were conducted with the SAS® System version 9.4 or higher. All analyses were subject to formal verification procedures.", "key": {"[1]": {"details": "Baseline ALP <3x ULN, 500 mg BID (n=8)"}, "[2]": {"details": "Baseline ALP <3x ULN, 1,000 mg BID (n=16)"}, "[3]": {"details": "Baseline ALP ≥3x ULN, 500 mg BID (n=7)"}, "[4]": {"details": "Baseline ALP ≥3x ULN, 1,000 mg BID (n=8)"}}}
{"smiles": "COc1ccc2cc3[n+](cc2c1OC)CCc1cc2c(cc1-3)OCO2.C[C@H](CCC(=O)[O-])[C@H]1CC[C@H]2[C@@H]3[C@@H](O)C[C@@H]4C[C@H](O)CC[C@]4(C)[C@H]3CC[C@]12C", "note": "[BUDCA, berberine ursodeoxycholate]", "values": [{"measurement": "Share of subjects achieving a 25% reduction in ALP", "setting": "500 mg BID, prior UDCA use, week 6", "value": 33, "unit": "%"}, {"measurement": "Percent change from Baseline in GGT at Week 6", "setting": "500 mg BID", "value": -21, "unit": "%"}, {"measurement": "Percent change in GGT at Week 6", "setting": "500 mg BID, subjects without prior UDCA use", "value": -42, "unit": "%"}, {"measurement": "Percent change from Baseline in GGT at Week 6", "setting": "1,000 mg BID", "value": -40, "unit": "%"}, {"measurement": "Percent change in GGT at Week 6", "setting": "1,000 mg BID, subjects without prior UDCA use", "value": -67, "unit": "%"}, {"measurement": "Mean (SD) change from Baseline to Week 6 in ALP", "setting": "[1]", "value": "-13 (118) U/L"}, {"measurement": "Mean (SD) change from Baseline to Week 6 in ALT", "setting": "[1]", "value": "-63 (104) U/L"}, {"measurement": "Mean (SD) change from Baseline to Week 6 in AST", "setting": "[1]", "value": "-18 (41) U/L"}, {"measurement": "Mean (SD) change from Baseline to Week 6 in ALP", "setting": "[2]", "value": "-20 (106) U/L"}, {"measurement": "Mean (SD) change from Baseline to Week 6 in ALT", "setting": "[2]", "value": "-30 (72) U/L"}, {"measurement": "Mean (SD) change from Baseline to Week 6 in AST", "setting": "[2]", "value": "-14 (26) U/L"}, {"measurement": "Mean (SD) change from Baseline to Week 6 in ALP", "setting": "[3]", "value": "-138 (134) U/L"}, {"measurement": "Mean (SD) change from Baseline to Week 6 in ALT", "setting": "[3]", "value": "-48 (74) U/L"}, {"measurement": "Mean (SD) change from Baseline to Week 6 in AST", "setting": "[3]", "value": "-37 (49) U/L"}, {"measurement": "Mean (SD) change from Baseline to Week 6 in ALP", "setting": "[4]", "value": "-185 (143) U/L"}, {"measurement": "Mean (SD) change from Baseline to Week 6 in ALT", "setting": "[4]", "value": "-80 (56) U/L"}, {"measurement": "Mean (SD) change from Baseline to Week 6 in AST", "setting": "[4]", "value": "-37 (39) U/L"}, {"measurement": "Absolute change in ALP from Baseline to Week 6 (primary efficacy endpoint)", "setting": "Period 1, both doses, compared to an increase in the placebo group", "value": "clinically meaningful and statistically significant decrease in ALP"}, {"measurement": "Number of subjects achieving ALP <1.5 x ULN", "setting": "Period 3, pooled active-to-active groups, depending on the week examined", "value": "4-6"}, {"measurement": "Reduction of GGT", "setting": "Subject 18-003, 1,000 mg BID, Week 18", "value": "~ 10%"}, {"measurement": "ALP relative to ULN", "setting": "Subject 18-003, 1,000 mg BID, after Week 12 through Week 18, baseline 1.8-fold ULN, prior UDCA 15 mg/kg", "value": "below 1.5 fold ULN"}, {"measurement": "Reduction of GGT", "setting": "Subject 23-004, 1,000 mg BID, Week 18", "value": "~50", "unit": "%"}, {"measurement": "ALP relative to ULN", "setting": "Subject 23-004, 1,000 mg BID, Week 18, baseline 2.6-fold ULN, prior UDCA 12 mg/kg", "value": "below 1.6 fold ULN"}, {"measurement": "Response rate with 1,000 mg BID compared with 500 mg BID, each efficacy endpoint", "setting": "Week 6", "value": "~ 2 fold"}, {"measurement": "Share of subjects achieving a 25% reduction in ALP", "setting": "active treatment, subjects without prior UDCA use", "value": "Over half"}, {"measurement": "Mean total bilirubin, albumin, and platelets", "setting": "all treatments throughout the study", "value": "remained stable and within normal range"}, {"measurement": "Safety and tolerability", "setting": "subjects with PSC, 500 mg BID and 1,000 mg BID, up to 18 weeks", "value": "safe and generally well tolerated"}]}
